Experimental data: patent US20150342954A1, “2-BENZYL, 3-(PYRIMIDIN-2-YL) SUBSTITUTED PYRAZOLES USEFUL AS SGC STIMULATORS” (IRONWOOD PHARMACEUTICALS, INC., priority 2011, published 2015)

Tested on: Guinea pig tracheal smooth muscle (GPTSM)
Assay: Electrical field stimulated guinea pig tracheal smooth muscle in vitro (ex vivo) model of bronchodilation
Conditions: Cavia porcellus; guinea pig tracheal strips, sub-maximal EFS; 95% CI 0.78-0.94; read-out: IC50, inhibition of EFS-induced tracheal smooth muscle contraction
Description: Electrical Field Stimulated Guinea Pig Tracheal Smooth Muscle In Vitro (Ex Vivo) Model for the Assessment of Bronchodilation.
It is possible to assess the bronchodilating effects of sGC stimulators by using the system described below. This system allowed us to determine potency, efficacy and duration of action of several sGC stimulators, as well as to assess potential side effects such as blood pressure, or heart rate changes. […]
On each experimental day, a guinea pig was killed by exposure to a rising concentration of CO2 and the trachea removed. […] Tissues were washed with Kreb's buffer and stimulated using the previously determined sub-maximal voltage for 1 hour to establish a stable baseline contraction prior to assessment of compound activity.
A cumulative dose response curve (DRC) to each test substance was then performed and changes in smooth muscle contraction measured. The effect of each test substance in each experiment was expressed as a percentage inhibition of the baseline contraction, normalized to the relevant vehicle controls. […] The data from all three experiments was pooled, the DRC plotted, and the test substance potency and efficacy determined.

Compound `CC(C)[N+]1(C)[C@@H]2CC[C@H]1C[C@@H](OC(=O)C(CO)c1ccccc1)C2` (stereo partly shown) [Ipratropium bromide] has an IC50 of 0.86 nM.
